Data reported in ChEMBL document CHEMBL3988442, “University of Dundee, Small-Polar-MMV Screening Library” (2021).
Several values for one entry are separate records, joined by “and”; a condition that tells them apart may be missing. Equal values may be shown once.

Tested on: Leishmania donovani
Assay: Leishmania intramacrophage assay
Format: functional, organism-based
Settings: for IC50: Leishmania donovani

SMILES | pIC50 | IC50 [µM]
CC(C)Nc1nc2c(c(NC3CC3)n1)CCN(C1CCOCC1)CC2 | 4.789 | 13
Cc1cc(C(F)(F)F)nc(N(C)Cc2c(C)noc2C)n1 | – | > 50.1
CN(c1ncnc2c1cnn2C)C1CCCN(c2cccnn2)C1 (stereo not drawn) | – | > 50.1
O=c1[nH]cccc1-c1nccc(C2(c3ccccc3Cl)CCNCC2)n1 | – | > 50.1
CC(C)OCCN1CCC(N2CCN(C)C2=O)CC1 | – | > 50.1
Cc1sc2nc(CCN)nc(N3CC(N4CCCCC4)C3)c2c1C | – | 23.7
NC(=O)C1CCN(Cc2csc(-c3ncccn3)n2)CC1 | – | > 50.1
Cc1nc2c(c(NCC(O)c3ccccc3Cl)n1)CCNCC2 (stereo not drawn) | 4.337 | 44.8
O=C(CO)N1CCC(F)(F)C2(CCN(c3ccccc3)C2)C1 (stereo not drawn) | – | > 50.1
COc1cccc(C(=O)NCc2ccccc2S(=O)(=O)N(C)C)c1 | – | > 50.1
CC(NC(=O)NCCCn1ccnc1)c1ccc2c(c1)OCCCO2 (stereo not drawn) | – | > 50.1
O=C(CCc1cscn1)N1CCCC(n2ccnc2)C1 (stereo not drawn) | – | > 50.1
O=C(NCCN1CCOCC1)c1ccc(-n2ccc3ccccc32)s1 | – | > 50.1
Cc1ncc(CNc2cnccc2CO)s1 | – | > 50.1
CC(=O)N1CCN(c2nc(C(F)(F)F)nc3sc(C)c(C)c23)CC1 | – | > 50.1
Cc1sc2nc(C(F)(F)F)nc(N3CCN(C)CC3)c2c1C | – | > 50.1
OCc1ccncc1NCc1cnc(-c2ccccn2)s1 | – | > 50.1
O=C(NCCCN1CCOCC1)c1ccc(-n2ccc3ccccc32)s1 | – | 15.8
Cc1ccc(-c2ncc(CNc3cnccc3CO)s2)o1 | – | > 50.1
NC(=O)C1CCN(c2cncc(-n3cccn3)n2)CC1 | – | > 50.1
O=C(c1cc[nH]n1)N1CCC(F)(F)C2(CCN(c3ccccn3)C2)C1 (stereo not drawn) | – | > 50.1
CN1CCN(C2COC3(CCN(CC4CC4)CC3)C2)CC1 (stereo not drawn) | – | > 50.1
Cc1nc(C2(O)CCCNCC2)sc1CCOc1ccccc1.Cl (stereo not drawn) | 4.482 | 24.2
CCOc1c(CNCCCn2ccnc2)cc(Cl)cc1OC | – | 27.5
CCOc1ccc(CNCCCn2ccnc2)cc1Br | 4.774 | 14.4

SMILES | pIC50 | IC50 [µM]
CS(=O)(=O)N1CCN(Cc2csc(-c3ncccn3)n2)CC1 | – | > 50.1
Cl.NCC(=O)N1CCC(c2ccnc(Nc3cc(C(F)(F)F)ccn3)n2)C1 (stereo not drawn) | 4.798 | 15
CCc1ccc(-c2ncc3c(n2)N(C)CCN(CCN(C)C)C3=O)cc1 | 4.813 | 10.3
CC(C)N1CCN(c2ccc3ccc(C(=O)NC4CCCC4)cn23)CC1 | – | > 50.1
CCNC(=O)c1ccc2ccc(N(CC)CC)n2c1 | – | > 50.1
c1cncc(COC[C@H]2CC[C@H]3[C@H](CCN3Cc3nccs3)O2)c1 | – | > 50.1
Cn1nc(COc2cccnc2)c2c1CCN(CC1CC1)C2 | – | > 50.1
Cn1cc(CN2CCC(F)(F)C3(CCN(c4ncccn4)C3)C2)cn1 (stereo not drawn) | – | > 50.1
Cc1c(CN2CC[C@@H](N3CCC(O)CC3)[C@H](O)C2)[nH]c2ccc(Cl)cc12 | 4.995 | 10.7
CN(C)C(=O)N1CCN(c2ccc3ccc(C(=O)NC4CC4)cn23)CC1 | – | > 50.1
CCN(CC)c1ccc2ccc(C(=O)N(C)C)cn12 | – | > 50.1
CCN(CC)c1ccc2ccc(C(=O)N(CCOC)CCOC)cn12 | – | > 50.1
Cc1c(-c2cc(C(F)F)nc3sc(C(N)=O)c(N)c23)cnn1C | – | > 50.1
CC1CCCN(Cc2coc(-c3cccc(F)c3)n2)C1 (stereo not drawn) | – | > 50.1
COc1ccc(Cl)cc1CNCCCn1ccnc1 | – | > 50.1
COCCNC(=O)c1ccc2ccc(N3CCN(CC4CC4)CC3)n2c1 | – | > 50.1
COc1ccc(OCCc2sc(C3(O)CCCNCC3)nc2C)cc1 (stereo not drawn) | – | > 50.1
CO[C@H]1[C@@H]2CC[C@H]1CN(c1nc(C)nc3sccc13)C2 | – | > 50.1
c1cc(CN2CCC3(CC2)CC(N2CCCC2)CO3)co1 (stereo not drawn) | – | > 50.1
CC(C)C[C@H](N)C(=O)N1CC2(CCNCC2)c2cc(Cl)ccc21.Cl.Cl | 4.898 and 5.256 | –
Cc1nc(N2C[C@@H](CN3CCCN(C)CC3)[C@@H](CO)C2)c2ccsc2n1 | – | > 50.1
c1ccc(C2CCN(c3cncc(-n4cccn4)n3)CC2)cc1 | – | > 50.1
Cc1cc(CN2CCCC(Cn3cncn3)C2)on1 (stereo not drawn) | – | > 50.1
CC(C(=O)NCc1ccnc(N(C)C)c1)n1cccn1 (stereo not drawn) | – | > 50.1
Cc1cc2c(c(-c3cncc(C(=O)N4CCCC4)n3)c1)OC(CN)C2 (stereo not drawn) | 4.717 | 27.5

SMILES | pIC50 | IC50 [µM]
COCc1noc(CNc2nc(C3CCCC3)nc3c2CCNCC3)n1 | – | > 50.1
Cc1sc2nc(CCN)nc(N(CCN(C)C)CC3CCCO3)c2c1C (stereo not drawn) | – | > 50.1
O=C(c1cnccn1)N1CCC(F)(F)C2(CCN(c3ccccn3)C2)C1 (stereo not drawn) | – | > 50.1
FC1(F)CCN(Cc2ccncc2)CC12CCN(c1cnccn1)C2 (stereo not drawn) | – | > 50.1
COc1ccc(C(NCc2cccc(C#N)c2)C(C)C)cc1 (stereo not drawn) | – | > 50.1
Cn1ccnc1CN1CCC(F)(F)C2(CCN(c3cnccn3)C2)C1 (stereo not drawn) | – | > 50.1
Cc1cc(C(F)(F)F)nc(N2CCN(Cc3nccn3C)CC2)n1 | – | > 50.1
CC(C)CC(=O)N1CCN(Cc2csc(-c3ncccn3)n2)CC1 | – | > 50.1
c1cnc(-c2nc(CN3CCC(c4ccn[nH]4)CC3)cs2)nc1 | – | > 50.1
c1cnc(-c2nc(CN3CCCC(N4CCCC4)C3)cs2)nc1 (stereo not drawn) | – | > 50.1
COc1cccc(Nc2nc(N3CCCC3)nc3c2CNCC3)c1.Cl | 5.277 | 4.47
CCC1CCCN(Cc2nc(N)c3ccccc3n2)C1 (stereo not drawn) | – | > 50.1
Cc1csc(C2(NCC(O)COc3ccc(F)cc3)CCC2)n1 (stereo not drawn) | – | > 50.1
Cc1cnc(N2CCc3onc(COc4cccnc4)c3C2)nc1 | – | > 50.1
CN(c1ncnc2c1CCC2)C1CCCN(c2cccnn2)C1 (stereo not drawn) | – | > 50.1
CC(C)n1ccnc1C1CCCN(c2ccccn2)C1 (stereo not drawn) | – | > 50.1
CC(NCc1ccsc1)c1ccc2c(c1)NC(=O)CO2 (stereo not drawn) | – | > 50.1
Cn1ccc(C(=O)N2CCCC(Cc3cccc4ncccc34)C2)n1 (stereo not drawn) | – | > 50.1
Cc1ccc(CN2CCC3(CC2)CC(N2CCN(C)CC2)CO3)s1 (stereo not drawn) | – | > 50.1
CC1CCCN(CC(=O)N2CCC(c3ncc4c(n3)CCNC4)CC2)C1 (stereo not drawn) | – | > 50.1
O=C(NCCCN1CCCC1=O)c1ccc(-n2ccc3ccccc32)s1 | – | > 50.1
Cc1c(C(=O)O)sc2nc(Cc3ccccc3)nc(N)c12 | – | > 50.1
CCN(CC)c1ccc2ccc(C(=O)NC3CC3)cn12 | – | > 50.1
COC(=O)c1sc2nc3c(c(C(F)(F)F)c2c1N)CN(C(C)=O)CC3 | – | > 50.1
O=C(C1CCC1)N1CCC(c2ncc3c(n2)CCNC3)CC1 | – | > 50.1

SMILES | pIC50 | IC50 [µM]
Cn1cc(CN2CCC(F)(F)C3(CCN(c4cccc(F)c4)C3)C2)cn1 (stereo not drawn) | – | > 50.1
CN(C)CCNC(=O)c1ccc2ccc(N(C)CC3CC3)n2c1 | – | > 50.1
O=C(O)C1CCCN1c1nc(-c2ccc(Cl)cc2)cc(C(F)(F)F)n1 (stereo not drawn) | – | > 50.1
O=C(NCC(F)(F)F)c1ccncc1 | – | > 50.1
CCN1CCCC(O)(c2nc(C)c(CCOc3ccccc3F)s2)CC1 (stereo not drawn) | – | > 50.1
Cc1ccc(N2CCC3(CN(Cc4ccncc4)CCC3(F)F)C2)nn1 (stereo not drawn) | – | > 50.1
CN(C)C1COC2(CCN(Cc3ccncc3)CC2)C1 (stereo not drawn) | – | > 50.1
CN1CCN(C2COC3(CCN(Cc4ccc(F)cc4)CC3)C2)CC1 (stereo not drawn) | – | > 50.1
FC1(F)CCN(Cc2cccnc2)CC12CCN(c1cnccn1)C2 (stereo not drawn) | – | > 50.1
CCc1cc(N2CCCNCC2)n2nc(C)c(C)c2n1 | – | > 50.1
O=C(O)C1CCCN1c1nc(C2CC2)cc(C(F)(F)F)n1 (stereo not drawn) | – | > 50.1
OC(c1ccccc1)C1CCN(Cc2csc(-c3ncccn3)n2)CC1 (stereo not drawn) | – | > 50.1
FC(F)(F)c1cc(-c2cccs2)nc(N2CCN3CCCC3C2)n1 (stereo not drawn) | – | > 50.1
CCCc1nc(CN2CCCC2Cn2cncn2)cs1 (stereo not drawn) | – | > 50.1
Cc1ccc(N2CCCC(N(C)c3ncnc4c3CCC4)C2)nn1 (stereo not drawn) | – | > 50.1
Cc1cc(C(F)(F)F)nc(CCNc2nc(C)nc3sccc23)n1 | – | > 50.1
CCCC1CCCN(Cc2csc(-c3cnn(C)c3)n2)CC1 (stereo not drawn) | – | > 50.1
O=C(NCc1cccnc1)C1=NN(c2ccccc2)C(=O)CN1 | – | > 50.1
Cc1ccccc1C1(CNc2nnc(C)c(C)c2C#N)CCOCC1 | – | > 50.1
Cn1nnc2c(sc3nc(N4CCOCC4)c4c(c32)CCC4)c1=O | – | > 50.1
COCc1ccc(CNC(=O)C2=NN(c3ccccc3)C(=O)CN2)cc1 | – | > 50.1
COc1ccc(CNC(=O)C2=NN(c3ccc(C)cc3)C(=O)CN2)cc1 | – | > 50.1
Cc1cc(N(C)CC2COc3ccccc3O2)nc(C)n1 (stereo not drawn) | – | > 50.1
CN1CCN(C2COC3(CCN(Cc4ccsc4)CC3)C2)CC1 (stereo not drawn) | – | > 50.1
CNC(=O)c1sccc1N(C)S(=O)(=O)c1ccc(Cl)cc1 | – | > 50.1

SMILES | pIC50 | IC50 [µM]
CCc1ccc(CN2CCC3(CC2)CC(N2CCN(C)CC2)CO3)cc1.O=C(O)C(F)(F)F (stereo not drawn) | 4.908 and 5.404 | –
N#CC1CCCN(c2nc(-c3ccccc3)nc3c2CCNCC3)C1 (stereo not drawn) | 4.667 | 20.6
Cn1cc(CN2CCC(F)(F)C3(CCN(c4ccccn4)C3)C2)cn1 (stereo not drawn) | – | > 50.1
COc1cccc(CNCC2CN(C)CCO2)c1 (stereo not drawn) | – | > 50.1
O=C(c1c[nH]cn1)N1CCC(F)(F)C2(CCN(c3ncccn3)C2)C1 (stereo not drawn) | – | > 50.1
CC(NC(=O)Cn1ccnc1)c1ccc(OCC2CC2)c(F)c1 (stereo not drawn) | – | > 50.1
COc1ccc(-c2cc(CNc3ncnc4c3CCNCC4)no2)cc1 | 4.744 | 22.5
CCC(=O)N1CCC2(C=C(C(=O)N(C)C)c3ccccc32)CC1 | – | > 50.1
COCCN(Cc1cnn(C)c1)c1nc(C)nc2sccc12 | – | > 50.1
COc1ccc(C)cc1CNC(=O)C1=NN(c2ccccc2)C(=O)CN1 | – | > 50.1
O=C(c1c[nH]cn1)N1CCC(F)(F)C2(CCN(c3ccccn3)C2)C1 (stereo not drawn) | – | > 50.1
Cc1cc(C(F)(F)F)nc(N2CCN3CCCC3C2)n1 (stereo not drawn) | – | > 50.1
CCOc1cc(CNCCCn2ccnc2)cc(Cl)c1OCC | – | 7.08
Cc1cc(N(C)CC2COc3ccccc3O2)nc(N)n1 (stereo not drawn) | – | > 50.1
C=C(C)CN1CCC(C(=O)c2cc(F)ccc2F)CC1 | – | > 50.1
FC1(F)CCN(Cc2ccccn2)CC12CCN(c1cnccn1)C2 (stereo not drawn) | – | > 50.1
CCN1CCCC(O)(c2nc(C)c(CCOc3ccc(F)cc3)s2)CC1 (stereo not drawn) | – | > 50.1
OCCN1CCC(F)(F)C2(CCN(c3cnccn3)C2)C1 (stereo not drawn) | – | > 50.1
CN(c1ncnc2sccc12)C1CCCN(c2cccnn2)C1 (stereo not drawn) | – | > 50.1
Cc1sc2nc(CCN)nc(N3CCS(=O)(=O)CC3)c2c1C | – | > 50.1
NCC1Cc2cc(Cl)cc(-c3cncc(C(=O)N4CCCCC4)n3)c2O1 (stereo not drawn) | 4.491 | 20.8
